Reference: US9932341B2, “Use of pyrazolopyrimidine derivatives for the treatment of PI3K-delta related disorders” (Incyte Corporation, priority 2013, dated 2018)

These compounds were tested against PI3Kδ (p110δ/p85α) (Homo sapiens (Human), UniProt O00329) (assay: PI3Kδ Scintillation Proximity Assay (Example A3)). Settings: 20 μM ATP, 20 μM PIP2, 4 nM PI3Kδ, read-out: PI3Kδ SPA IC50.
Format: biochemical
Experimental: [γ-^33P]ATP (10 mCi/mL) was purchased from PerkinElmer (Waltham, Mass.). […] PI3Kδ (p110δ/p85α) was purchased from Millipore (Bedford, Mass.). ATP, MgCl2, DTT, EDTA, MOPS and CHAPS were purchased from Sigma-Aldrich (St. Louis, Mo.). Wheat Germ Agglutinin (WGA) YSi SPA Scintillation Beads was purchased from GE healthcare life sciences (Piscataway, N.J.).
The kinase reaction was conducted in polystyrene 384-well matrix white plate from Thermo Fisher Scientific in a final volume of 25 μL. Inhibitors were first diluted serially in DMSO and added to the plate wells before the addition of other reaction components. The final concentration of DMSO in the assay was 0.5%. The PI3K assays were carried out at room temperature in 20 mM MOPS, pH 6.7, 10 mM MgCl2, 5 mM DTT and CHAPS 0.03%. Reactions were initiated by the addition of ATP, the final reaction mixture consisted of 20 μM PIP2, 20 μM ATP, 0.2 μCi [γ-^33P] ATP, 4 nM PI3Kδ. […] 25 mM EDTA, 400 μM ATP. The final concentration of SPA beads was 1.0 mg/mL. After the plate sealing, plates were shaken overnight at room temperature and centrifuged at 1800 rpm for 10 minutes, the radioactivity of the product was determined by scintillation counting on Topcount (PerkinElmer). IC50 determination was performed by fitting the curve of percent control activity versus the log of the inhibitor concentration using the GraphPad Prism 3.0 software.

Sequence of PI3Kδ (p110δ/p85α) (O00329 whole entry): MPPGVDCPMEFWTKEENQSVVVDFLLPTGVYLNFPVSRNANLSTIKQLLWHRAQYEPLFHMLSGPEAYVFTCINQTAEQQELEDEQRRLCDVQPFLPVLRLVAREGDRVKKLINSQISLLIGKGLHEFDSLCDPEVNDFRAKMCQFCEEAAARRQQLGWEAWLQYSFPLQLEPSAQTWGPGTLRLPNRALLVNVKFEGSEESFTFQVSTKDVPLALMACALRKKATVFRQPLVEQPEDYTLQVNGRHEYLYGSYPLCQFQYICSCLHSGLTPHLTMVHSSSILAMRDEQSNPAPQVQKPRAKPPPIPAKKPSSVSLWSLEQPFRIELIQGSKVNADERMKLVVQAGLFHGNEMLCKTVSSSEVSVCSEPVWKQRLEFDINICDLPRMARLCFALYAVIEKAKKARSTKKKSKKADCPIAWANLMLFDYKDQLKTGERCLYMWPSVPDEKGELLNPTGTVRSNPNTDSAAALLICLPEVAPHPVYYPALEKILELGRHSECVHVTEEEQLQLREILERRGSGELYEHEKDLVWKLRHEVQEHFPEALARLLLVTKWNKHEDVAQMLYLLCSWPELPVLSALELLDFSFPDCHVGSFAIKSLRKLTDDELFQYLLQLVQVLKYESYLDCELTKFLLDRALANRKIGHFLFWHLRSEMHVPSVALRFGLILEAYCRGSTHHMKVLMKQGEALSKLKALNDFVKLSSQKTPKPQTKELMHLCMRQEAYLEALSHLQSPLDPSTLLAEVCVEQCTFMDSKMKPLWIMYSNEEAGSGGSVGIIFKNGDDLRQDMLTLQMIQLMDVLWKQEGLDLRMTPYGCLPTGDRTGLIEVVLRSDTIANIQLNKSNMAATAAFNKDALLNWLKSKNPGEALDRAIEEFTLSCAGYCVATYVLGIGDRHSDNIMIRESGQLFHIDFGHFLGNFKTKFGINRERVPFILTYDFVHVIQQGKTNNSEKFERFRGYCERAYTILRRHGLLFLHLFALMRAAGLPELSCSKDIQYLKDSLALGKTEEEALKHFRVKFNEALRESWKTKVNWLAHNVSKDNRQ
Sequence of PI3Kδ (p110δ/p85α) (P27986 whole entry partner): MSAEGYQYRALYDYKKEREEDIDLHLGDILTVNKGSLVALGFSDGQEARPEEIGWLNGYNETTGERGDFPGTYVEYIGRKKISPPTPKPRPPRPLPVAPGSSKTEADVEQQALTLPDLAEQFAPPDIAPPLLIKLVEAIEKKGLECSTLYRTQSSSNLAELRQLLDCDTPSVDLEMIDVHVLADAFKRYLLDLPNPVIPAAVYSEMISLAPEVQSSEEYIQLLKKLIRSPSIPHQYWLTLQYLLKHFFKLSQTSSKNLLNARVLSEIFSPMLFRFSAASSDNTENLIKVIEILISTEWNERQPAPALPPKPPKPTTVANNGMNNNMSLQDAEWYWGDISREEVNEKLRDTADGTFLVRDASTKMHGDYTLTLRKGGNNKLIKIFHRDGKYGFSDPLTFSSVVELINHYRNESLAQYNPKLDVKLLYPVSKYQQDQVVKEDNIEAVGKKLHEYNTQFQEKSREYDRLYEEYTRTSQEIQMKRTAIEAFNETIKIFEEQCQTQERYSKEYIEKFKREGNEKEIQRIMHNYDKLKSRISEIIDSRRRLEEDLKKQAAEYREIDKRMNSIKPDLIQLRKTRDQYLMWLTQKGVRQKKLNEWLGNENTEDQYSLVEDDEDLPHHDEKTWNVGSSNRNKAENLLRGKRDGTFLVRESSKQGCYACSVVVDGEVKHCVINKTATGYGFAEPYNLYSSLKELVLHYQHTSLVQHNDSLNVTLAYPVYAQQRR

Row | Compound | IC50
1 | COc1c(C(C)n2nc(C)c3c(N)ncnc32)cc(Cl)c(C)c1C1CN(C(CO)C(F)(F)F)C1 (stereo not shown) [Example 113, 2-(3-{3-[1-(4-Amino-3-methyl-1H-pyrazolo[3,4-d]pyrimidin-1-yl)ethyl]-5-chloro-2-methoxy-6-methylphenyl}azetidin-1-yl)-3,3,3-trifluoropropan-1-ol] | < 10 nM
2 | CCOc1c(C(C)n2nc(C)c3c(N)ncnc32)cc(Cl)c(C#N)c1C1CN(CCO)C1 (single isomer, unassigned) [Example 219, 4-[1-(4-Amino-3-methyl-1H-pyrazolo[3,4-d]pyrimidin-1-yl)ethyl]-6-chloro-3-ethoxy-2-[1-(2-hydroxyethyl)azetidin-3-yl]benzonitrile] | < 10 nM
3 | COc1c(C(C)n2nc(C)c3c(N)ncnc32)cc(C)c(C#N)c1C1CN(C[C@H](C)O)C1 (single isomer, unassigned) [Example 315] | < 10 nM
4 | CCOc1c(C(C)n2nc(C)c3c(N)ncnc32)cc(Cl)c(C)c1-c1cnn(CC(N)=O)c1 (single isomer, unassigned) [Example 203, 2-(4-(3-(1-(4-Amino-3-methyl-1H-pyrazolo[3,4-d]pyrimidin-1-yl)ethyl)-5-chloro-2-ethoxy-6-methylphenyl)-1H-pyrazol-1-yl)acetamide] | < 10 nM
5 | CCOc1c(C(C)n2nc(C)c3c(N)ncnc32)cc(Cl)c(C#N)c1C1CNC(=O)O1 (stereo not drawn) [323 (1st peak), 4-[1-(4-amino-3-methyl-1H-pyrazolo[3,4-d]pyrimidin-1-yl)ethyl]-6-chloro-3-ethoxy-2-(2-oxo-1,3-oxazolidin-5-yl)benzonitrile] | < 10 nM
6 | CCOc1c(C(C)n2nc(C)c3c(N)ncnc32)cc(Cl)c(C#N)c1C1CN(C(=O)C(C)(C)O)C1 (single isomer, unassigned) [Example 247, 4-[1-(4-Amino-3-methyl-1H-pyrazolo[3,4-d]pyrimidin-1-yl)ethyl]-6-chloro-3-ethoxy-2-[1-(2-hydroxy-2-methylpropanoyl)azetidin-3-yl]benzonitrile] | < 10 nM
7 | 1-(1-(5-chloro-2-methoxy-4-methyl-3-(pyrimidin-5-yl)phenyl)ethyl)-3-methyl-1H-pyrazolo[3,4-d]pyrimidin-4-amine [Example 168] | < 10 nM
8 | CCOc1c(C(C)n2nc(C)c3c(N)ncnc32)cc(Cl)c(C#N)c1N1CCCC1 (racemic) [Example 318, 4-[1-(4-amino-3-methyl-1H-pyrazolo[3,4-d]pyrimidin-1-yl)ethyl]-6-chloro-3-ethoxy-2-pyrrolidin-1-ylbenzo nitrile] | < 10 nM
9 | COc1c(C(C)n2nc(C)c3c(N)ncnc32)cc(Cl)c(C#N)c1C1CN(C(=O)N(C)C)C1 (single isomer, unassigned) [Example 296, 3-{3-[1-(4-Amino-3-methyl-1H-pyrazolo[3,4-d]pyrimidin-1-yl)ethyl]-5-chloro-6-cyano-2-methoxyphenyl}-N,N-dimethylazetidine-1-carboxamide] | < 10 nM
10 | COc1c(C(C)n2nc(C)c3c(N)ncnc32)cc(Cl)c(C)c1C1CN(CCO)C1 (single isomer, unassigned) [Example 104, 2-(3-{3-[1-(4-Amino-3-methyl-1H-pyrazolo[3,4-d]pyrimidin-1-yl)ethyl]-5-chloro-2-methoxy-6-methylphenyl}azetidin-1-yl)ethanol] | < 10 nM
11 | CCOc1c(C(C)n2nc(C)c3c(N)ncnc32)cc(Cl)c(F)c1C1CNC(=O)O1 (single isomer, unassigned) [Example 356, 5-{3-[1-(4-amino-3-methyl-1H-pyrazolo[3,4-d]pyrimidin-1-yl)ethyl]-5-chloro-2-ethoxy-6-fluorophenyl}-1,3-oxazolidin-2-one] | 50 to 200 nM
12 | CCOc1c(C(C)n2nc(C)c3c(N)ncnc32)cc(Cl)c(C)c1C1CN(C[C@H](C)O)C1 (stereo partly drawn) [Example 96, (2S)-1-(3-{3-[1-(4-Amino-3-methyl-1H-pyrazolo[3,4-d]pyrimidin-1-yl)ethyl]-5-chloro-2-ethoxy-6-methylphenyl}azetidin-1-yl)propan-2-ol bis(trifluoroacetate)] | < 10 nM
13 | COc1c(C(C)n2nc(C)c3c(N)ncnc32)cc(Cl)c(C)c1C1CN(C[C@@H](O)C(F)(F)F)C1 (single isomer, unassigned) [Example 115] | < 10 nM
14 | CCOc1c(C(C)n2nc(C)c3c(N)ncnc32)cc(Cl)c(C#N)c1-c1cncc(S(C)(=O)=O)c1 (racemic) [Example 43, 4-[1-(4-amino-3-methyl-1H-pyrazolo[3,4-d]pyrimidin-1-yl)ethyl]-6-chloro-3-ethoxy-2-[5-(methylsulfonyl)pyridin-3-yl]benzonitrile] | < 10 nM
15 | COc1c(C(C)n2nc(C)c3c(N)ncnc32)cc(Cl)c(C#N)c1C1CN(C)C1 (single isomer, unassigned) [Example 262, 4-[1-(4-Amino-3-methyl-1H-pyrazolo[3,4-d]pyrimidin-1-yl)ethyl]-6-chloro-3-methoxy-2-(1-methylazetidin-3-yl)benzonitrile] | < 10 nM
16 | COc1c(C(C)n2nc(C)c3c(N)ncnc32)cc(Cl)c(C#N)c1C1CN(C(N)=O)C1 (single isomer, unassigned) [Example 293, 3-{3-[1-(4-Amino-3-methyl-1H-pyrazolo[3,4-d]pyrimidin-1-yl)ethyl]-5-chloro-6-cyano-2-methoxyphenyl}azetidine-1-carboxamide] | < 10 nM
17 | COc1c(C(C)n2nc(C)c3c(N)ncnc32)cc(Cl)c(C)c1-c1cnn(CCO)c1 (single isomer, unassigned) [20 (1st peak), 2-(4-(3-(1-(4-Amino-3-methyl-1H-pyrazolo[3,4-d]pyrimidin-1-yl)ethyl)-5-chloro-2-methoxy-6-methylphenyl)-1H-pyrazol-1-yl)ethanol] | < 10 nM
18 | COc1c(C(C)n2nc(C)c3c(N)ncnc32)cc(Cl)c(C)c1C1CN(CC(C)C)C1 (racemic) [Example 7, 1-{1-[5-Chloro-3-(1-isobutylazetidin-3-yl)-2-methoxy-4-methylphenyl]ethyl}-3-methyl-1H-pyrazolo[3,4-d]pyrimidin-4-amine] | < 10 nM
19 | CCOc1c(C(C)n2nc(C)c3c(N)ncnc32)cc(Cl)c(C#N)c1-c1ccc(C(C)(C)O)nc1 (racemic) [Example 316, 4-[1-(4-amino-3-methyl-1H-pyrazolo[3,4-d]pyrimidin-1-yl)ethyl]-6-chloro-3-ethoxy-2-[6-(1-hydroxy-1-methylethyl)pyridin-3-yl]benzonitrile] | < 10 nM
20 | COc1c(C(C)n2nc(C)c3c(N)ncnc32)cc(Cl)c(C)c1-c1ccnc(C(=O)N(C)CCO)c1 (racemic) [Example 19, 4-{3-[1-(4-amino-3-methyl-1H-pyrazolo[3,4-d]pyrimidin-1-yl)ethyl]-5-chloro-2-methoxy-6-methylphenyl}-N-(2-hydroxyethyl)-N-methylpyridine-2-carboxamide] | < 10 nM
21 | COc1c(C(C)n2nc(C)c3c(N)ncnc32)cc(Cl)c(C#N)c1C1CN(CCO)C1 (single isomer, unassigned) [Example 268, 4-[1-(4-Amino-3-methyl-1H-pyrazolo[3,4-d]pyrimidin-1-yl)ethyl]-6-chloro-2-[1-(2-hydroxyethyl)azetidin-3-yl]-3-methoxybenzo nitrile] | < 10 nM
22 | CCOc1c(C(C)n2nc(C)c3c(N)ncnc32)cc(Cl)c(F)c1C1CNC(=O)O1 (single isomer, unassigned) [Example 355, 5-{3-[1-(4-amino-3-methyl-1H-pyrazolo[3,4-d]pyrimidin-1-yl)ethyl]-5-chloro-2-ethoxy-6-fluorophenyl}-1,3-oxazolidin-2-one] | 50 to 200 nM
